Values joined by “and” are separate entries in the source; they are usually repeats but may differ in a detail not shown here. Equal entries are not always repeated. Where two headings read alike, the source gives them in different places.
Assays:
[1] = parameters: method as in reviewer #3 remark; conditions: in humans; ref reviewer #3 remark; cited from earlier work
[2] = cited from earlier work
[3] = cytotoxicity against HepG2 cells; assay type: cell-based; conditions: human; HepG2; read-out: inhibition IC50 vs HepG2
Procedure: Cytotoxicity was evaluated in human HepG2 liver cells, using an MTT assay. Briefly, HepG2 cells were cultured in complete Dulbecco’s modified Eagle’s medium (DMEM; Gibco-Invitrogen, No. 11995-065) prepared by supplementing DMEM with 10% heat inactivated FBS (Gibco-Invitrogen, No. 16000-036), 100 units/mL penicillin, and 100 µg/mL streptomycin. Cell viability was assessed using trypan blue. Ninety-six-well plates were seeded with 2 × 10^4 cells per well and incubated at 37 °C overnight in a humidified 5% CO2 atmosphere. Test compound plates were prepared with an INTEGRA assist plus station and 96-well plates containing 11 duplicate 2-fold serial dilutions of test compound suspended in DMSO. The diluted test compound was then added to the corresponding well preseeded with HepG2 cells. […] After incubation, 20 µL of a 0.1 mg/mL solution of resazurin diluted in PBS was added to each well, and all plates were subsequently incubated for 3–4 h in an incubator. Absorbance was determined with the Molecular Devices SpectraMax plate reader. Three independent experiments, each in duplicate, were performed, and the IC50 values were determined using GraphPad Prism software (Version 10) using the non-linear regression equation (sigmoidal dose-response, variable slope).

[4] = tested on: P. falciparum D6, Dd2, Tm90-C2B, Dd2-D1^I22L, D10yDHODH; test: microbe, parasite or virus in culture; assay type: cell-based, Plasmodium falciparum; conditions: Plasmodium falciparum
Procedure: (§1) Drug susceptibility assays against P. falciparum strains were performed using a SYBR Green based assay. D6 and Dd2 were obtained from MR4. Tm90-C2B was obtained from WRAIR. Dd2-D1^I22L and ELQ-300 were obtained from VAPORHCS. D10yDHODH was obtained as a courtesy from Dr. Akhil Vaidya at Drexel University. P. yoelii ATV^r and ELQ-300^r clones were obtained from VAPORHCS.

[5] = tested on: P. falciparum mutant T111 lines; test: drug susceptibility of T111-selected cyt b mutant lines; assay type: cell-based, Plasmodium falciparum; conditions: Plasmodium falciparum, DD2, Supplementary Table 4
Procedure: DNA extractions were performed on clonal parasites using the QIAamp DNA extraction kit (QIAGEN Inc, Valencia, CA) or ZYMO Quick gDNA Miniprep kit (Zymo Research Corp, Irvine, CA). For sequencing of the open reading frame of pfcytb, PCR was performed with genomic DNA using forward and reverse flanking primers for cyt b primer 1: 5’-[…]-3’ and primer 2: 5’-[…]-3’. PCR products were subjected to enzymatic cleanup with ExoSAP-IT (Thermo Fisher Scientific) and sent for Sanger sequencing (Eurofins Genomics, Louisville, KY) with PCR primer 2 paired with an internal forward primer: 5’-[…]-3’ and an internal reverse primer: 5’-[…]-3’. Sequences were assembled using 4Peaks software (Nucleobytes, Amsterdam, Netherlands) and aligned with Clustal Omega (EMBL-EBI). For sequencing of the open reading frame of pfdhodh, PCR was performed with genomic DNA using forward primer: 5’-[…]-3’ and reverse primer: 5’-[…]-3’. PCR products were prepared for Sanger sequencing and analyzed as described above, except using two forward primers: 5’-[…]-3’ and 5’-[…]-3’ and with two reverse primers: 5’-[…]-3’ and 5’-[…]-3’.
as §1

rhesus hepatocytes = test: host hepatocyte viability in the P. cynomolgi assay; assay type: cell-based; conditions: radical cure mode; read-out: cytotoxicity CC50
Procedure: (§2) The liver-stage P. cynomolgi assay was designed to identify anti-hypnozoite drugs utilizing a 384-well in vitro culture system[31],[37]. Briefly, cryopreserved primary simian hepatocytes (donor lots XGB, OQB, and QHO: BioIVT, Inc.) were seeded in collagen-coated 384-well plates and infected with P. cynomolgi bastianellii (B strain) sporozoites dissected from infected Anopheles dirus mosquitoes. Test compounds were solubilized in 100% DMSO and serially diluted 2-fold to generate up to a 12-point dose-response curve, maintaining a final DMSO concentration of 0.1% across all wells. Two distinct treatment modes were evaluated. For the prophylactic assay, to assess the prevention of infection, compound exposure began 1-hour post-infection with daily media changes on Days 1 and 2. For the radical cure assay, to assess activity against established liver forms, drugs were administered daily from Day 4 through Day 7 post-infection. […] For readout on Day 8, plates were fixed and stained via immunofluorescence to visualize parasite forms (hypnozoites and schizonts) and hepatocyte nuclei, and images were acquired using an Operetta CLS high-content imaging system (PerkinElmer). Host hepatocyte viability was measured in parallel to determine compound toxicity. Parasite forms were automatically quantified using Harmony 4.9 software, and percent inhibition and toxicity were calculated relative to in-plate DMSO vehicle controls. IC50 and CC50 (half-maximal cytotoxic concentrations) were determined by fitting dose-response data to a four-parameter logistic (variable slope) model using a custom Python script incorporating a grid search algorithm.

[6] = tested on: P. cynomolgi hypnozoites and schizonts; test: in vitro liver-stage P. cynomolgi assay in primary rhesus hepatocytes; assay type: cell-based, Plasmodium cynomolgi; conditions: read-out: inhibition IC50
Procedure: as §2

[7] = host hepatocyte viability in the P. cynomolgi assay; assay type: cell-based, rhesus; conditions: rhesus monkey; radical cure mode; read-out: cytotoxicity CC50
Procedure: as §2

[8] = tested on: P. falciparum NF54 oocysts in mosquitoes; test: tarsal contact assay; assay type: in vivo, P. falciparum in Anopheles gambiae G3; conditions: 5% by weight film, 6 min contact
Procedure: The tarsal assay using a thin film was performed. For preparation of a thin film, 25 mL xylenes and 1.0 g low density polyethylene polymer were combined on the lid of a glass petri dish (6 cm) and heated at 150 °C until the polymer was dissolved. Xylenes were occasionally replenished upon evaporation. A solution of xylenes containing […] prodrug was then added to the above solution. […] The crude polymer thin film was then put underneath the glass petri dish, and the assembled apparatus was heated on a hot plate with a weight placed on top. The resulting extruded polymer thin film containing the 5% (w/w) […] prodrug in low-density polyethylene (LDPE) was allowed to cool and removed from the petri dish lid. […] After exposure, the mosquitoes were immediately transferred to a cage and one hour later provided with cultured P. falciparum NF54 gametocyte-infected erythrocytes using a membrane feeder. […] On Day 7 post-infection, mosquitoes were aspirated into 80% ethanol and incubated at -20 °C for 10 min before being transferred to 1X PBS for dissection. […] Midguts were imaged and oocysts counted at 100× magnification on an Olympus Inverted CKX41 microscope to quantify oocyst prevalence and intensity.

[9] = pilot safety study in rhesus monkeys; assay type: in vivo; conditions: response to reviewers
blood-stage P. yoelii [10] = test: 4-day suppression murine model, oral; assay type: in vivo, P. yoelii in CF1 mice
Source text: (§3) Animals were housed at the VAPORHCS in Thoren Maxi-Miser microisolator cages (78 sq. in. floor space) with a maximum density of five females or four males per cage. Cages were maintained on a 12-h light/dark cycle and provided with autoclaved nesting materials (nestlets) for environmental enrichment. All mice had ad libitum access to food and water. Four- to five-week-old female and male outbred CF1 mice (Charles River Laboratories, Raleigh, NC, USA) were randomly assigned to treatment and control groups using a simple randomization procedure (e.g., computer-generated random numbers) to ensure balanced distribution of baseline body weights and starting parasitemia levels across all cohorts. Groups of four mice (n = 4, mean body weight of each group was ~30 g) were infected intravenously with 3.5 × 10^4 P. yoelii (Kenya strain, MRA-428) from a donor animal. Drug administration commenced the day after the animals were inoculated (Day 1). The test drug or the drug combination was dissolved in PEG-400 and administered by oral gavage once daily for 4 successive days in the 4-day suppression model, but only once on Day 1 in the single-dose cure model. Blood was collected via the tail vein with the aid of a syringe needle on Day 5 and then at weekly intervals through Day 28. Blood films were Giemsa-stained and examined microscopically to determine the level of parasitemia. All mice were observed daily to assess clinical signs. Animals with observable parasitemia following the experiments were euthanized; animals cleared of parasitemia from their bloodstream were observed daily with assessment of parasitemia performed weekly until Day 28, at which point, the animal(s) were scored as cured of the infection and then humanely euthanized. All treated mice with a negative smear on Day 28 were considered cured (100% protection). […]

blood-stage P. yoelii [11] = test: single-dose cure murine model, oral; assay type: in vivo, P. yoelii in CF1 mice
Source text: as §3

[12] = tested on: luciferase-expressing P. berghei sporozoites; test: liver-stage prophylaxis murine model with IVIS bioluminescence imaging; assay type: in vivo, P. berghei in Albino C57BL/6 mice; conditions: Days -1, 0, 1
Source text: Four- to six-week-old female inbred Albino C57BL/6 mice (18–22 g, Jackson Laboratories, Bar Harbor, ME, USA) were utilized. Animals were assigned unique study numbers via ear tags and cage cards and were randomly assigned to treatment or control groups (n = 5 per group) using a weigh-stratified randomization procedure. All animals were quarantined and acclimatized for 7 days prior to study initiation and were housed in a 12:12 light/dark cycle with food and water provided ad libitum. Mice were infected intravenously with 10^4 luciferase-expressing P. berghei sporozoites (ANKA strain) via tail vein injection on Day 0. Drugs were dissolved in PEG-400 and administered orally once per day on Day -1, Day 0, and Day 1. […] Infection reduction was assessed by comparing the bioluminescence signals emitted by treated groups with signals emitted by the vehicle control-treated group at that time point. Later blood-stage parasitemia was determined via flow cytometry. […] Long-term blood-stage efficacy was evaluated starting on Day 6 post-infection and continued for up to 31 days using flow cytometry.
In vivo antimalarial efficacy studies were performed as described above.

[13] = Plasmodium cynomolgi, Hepatocyte, in Macaca mulatta, prophylactic mode, hypnozoite
[14] = Plasmodium cynomolgi, Hepatocyte, in Macaca mulatta, prophylactic mode, schizont
[15] = Plasmodium cynomolgi, Hepatocyte, in Macaca mulatta, radical cure mode, hypnozoite
[16] = Plasmodium cynomolgi, Hepatocyte, in Macaca mulatta, radical cure mode, schizont

SMILES: CCN(CC)CCCC(C)Nc1ccnc2cc(Cl)ccc12 (stereo not drawn) [CQ, chloroquine]
- T1/2 [1]: 480 to 960 h
- T1/2 ([2]; healthy mice, ref PMID: 21646487): about 46 h
- IC50 at 24 h [3]: 68600 nM
- IC50 ([4]; read-out: in vitro IC50 vs P. falciparum, D6): 14 ± 0.7 nM
- IC50 ([4]; read-out: in vitro IC50 vs P. falciparum, D10yDHODH): 79 ± 16 nM
- IC50 ([4]; read-out: in vitro IC50 vs P. falciparum, Dd2-D1^I22L (ELQ-300-resistant)): 209 ± 26 nM
- IC50 ([4]; read-out: in vitro IC50 vs P. falciparum, Tm90-C2B (cyt b Y268S, ATV-resistant)): 211 ± 7.6 nM
- IC50 ([5]; Dd2): 181 ± 15 nM
- IC50 ([5]; Dd2-A131S-140I-259L-264L): 205 ± 21 nM
- IC50 ([5]; Dd2-B131S-140I-259L-264L): 168 ± 31 nM
- IC50 ([5]; Dd2-D0119L-131S-259L (pfdhodh mutation)): 210 ± 34 nM
- IC50 ([5]; Dd2-D1131S-140I-259L (pfdhodh mutation)): 162 ± 18 nM

SMILES: CNC(=O)c1ccc(-c2cnc3cnc(C(=O)N(C)c4ccc(Cl)cc4)cn23)cc1 [KDU691]
- CC50 (rhesus hepatocytes): > 20000 nM
- IC50 ([6]; prophylactic mode, hypnozoite): 120 nM
- IC50 ([6]; prophylactic mode, schizont): 98 nM
- IC50 ([6]; radical cure mode, hypnozoite): > 20000 nM
- IC50 ([6]; radical cure mode, schizont): 190 nM

SMILES: CO[C@@H]1[C@@H](OC)[C@H](C)[C@@](O)(CC(=O)O)O[C@H]1[C@H](C)[C@H]1O[C@@]2(CC[C@@](C)([C@H]3CC[C@@](C)([C@@H]4O[C@@H]([C@H]5O[C@](C)(O)[C@H](C)C[C@@H]5C)C[C@@H]4O[C@@H]4C[C@H](OC)[C@@H](OC)[C@H](C)O4)O3)O2)C[C@H](O)[C@H]1C [MAD, maduramicin]
- CC50 at 4 days [7]: 360 nM
- IC50 [6, 13]: < 0.98 nM
- IC50 [6, 14]: < 0.98 nM
- IC50 [6, 15]: 21 nM
- IC50 [6, 16]: 41 nM

SMILES: CCOC(=O)Oc1c2ccc(Oc3ccc(OC(F)(F)F)cc3)cc2nc2cc(Cl)cc(F)c12 [T111 prodrug]
- reduction in oocyst intensity (inhibition) [8]: 97.6%
- reduction in oocyst prevalence (inhibition) [8]: 92.5%
- tolerability [9]: well-tolerated

SMILES: COc1cc(C)c2c(Oc3cccc(C(F)(F)F)c3)c(OC)cc(NC(C)CCCN)c2n1 (stereo not drawn) [TQ, tafenoquine]
- T1/2 [1]: 336 h
- CC50 at 4 days [7]: > 20000 nM
- T1/2 ([2]; mouse liver, ref internal data from WRAIR): 75 h
- T1/2 ([2]; mouse plasma, ref internal data from WRAIR): 50 h
- IC50 [6, 13]: 180 nM
- IC50 [6, 14]: 170 nM
- IC50 [6, 15]: 8100 nM
- IC50 [6, 16]: 9800 nM
- ED50 of TQ (blood-stage P. yoelii [10]; TQ + 0.03 mg/kg/d T111): 0.59 mg/kg/day
- ED50 of TQ (blood-stage P. yoelii [10]; TQ + 0.06 mg/kg/d T111): 0.12 mg/kg/day
- ED50 of TQ (blood-stage P. yoelii [10]; TQ + 0.12 mg/kg/d T111): 0.05 mg/kg/day
- ED50 of TQ (blood-stage P. yoelii [10]; TQ alone, female CF1 mice): 1.70 mg/kg/day
- % survival through Day 28 (blood-stage P. yoelii [11]; TQ 15 + T111 0 mg/kg): 0%
- number of mice cured on Day 28 (blood-stage P. yoelii [11]; TQ 15 + T111 0 mg/kg): 0/4
- parasitemia burden on Day 5 (blood-stage P. yoelii [11]; TQ 15 + T111 0 mg/kg): 0
- % survival through Day 28 (blood-stage P. yoelii [11]; TQ 20 + T111 0 mg/kg): 25%
- number of mice cured on Day 28 (blood-stage P. yoelii [11]; TQ 20 + T111 0 mg/kg): 1/4
- parasitemia burden on Day 5 (blood-stage P. yoelii [11]; TQ 20 + T111 0 mg/kg): 0
- % survival through Day 28 (blood-stage P. yoelii [11]; TQ 30 + T111 0 mg/kg): 75%
- number of mice cured on Day 28 (blood-stage P. yoelii [11]; TQ 30 + T111 0 mg/kg): 3/4
- parasitemia burden on Day 5 (blood-stage P. yoelii [11]; TQ 30 + T111 0 mg/kg): 0
- % survival through Day 28 (blood-stage P. yoelii [11]; TQ 40 + T111 0 mg/kg): 100%
- number of mice cured on Day 28 (blood-stage P. yoelii [11]; TQ 40 + T111 0 mg/kg): single-dose cure in all treated mice and 4/4
- parasitemia burden on Day 5 (blood-stage P. yoelii [11]; TQ 40 + T111 0 mg/kg): 0
- protection from liver-stage infection ([12]; 1 mg/kg/day oral): did not clear liver-stage infection
- protection from liver-stage infection ([12]; 10 mg/kg/day oral): full protection

From article PMC13168289, “Potent acridone antimalarial against all three life stages of Plasmodium” (Nature Communications, 2026)
